Results reported in ChEMBL document CHEMBL1142222, “A-803467, a potent and selective Nav1.8 sodium channel blocker, attenuates neuropathic and inflammatory pain in the rat” (Proc Natl Acad Sci U S A, 2007).

How the values were obtained:
[1] = tested on: Rattus norvegicus; assay: Analgesic activity in ip dosed rat L5/L6 spinal nerve ligation-induced neuropathic pain model; format: functional
[2] = tested on: Rattus norvegicus; assay: Analgesic activity in ip dosed rat chronic constriction injury model of mechanical allodynia; format: functional
[3] = tested on: Rattus norvegicus; assay: Analgesic activity in ip dosed rat vincristine-induced mechanical allodynic neuropathic pain; format: functional
[4] = tested on: Rattus norvegicus; assay: Analgesic activity in ip dosed rat skin incision model of post-operative pain after 2 hrs; format: functional
[5] = tested on: Mus musculus; assay: Analgesic activity in ip dosed mouse visceral pain model assessed as acetic acid induced writhing; format: functional
[6] = tested on: Rattus norvegicus; assay: Analgesic activity in ip dosed rat cyclophosphamide induced cyctitis model; format: functional
[7] = tested on: Rattus norvegicus; assay: Analgesic activity in ip dosed rat cyclophosphamide induced cyctitis model at 100 mg/kg, ip; format: functional; conditions: route intraperitoneal
[8] = tested on: Rattus norvegicus; assay: Analgesic activity in ip dosed rat colonic distension model; format: functional
[9] = organism: Rattus norvegicus; assay: Motor effect in rat by rotarod test; format: functional
[10] = tested on: Rattus norvegicus; assay: Motor effect in rat by rotarod test at 300 mg/kg, ip; format: functional; conditions: route intraperitoneal
[11] = tested on: Rattus norvegicus; assay: Motor effect in ip dosed rat assessed as latency to fall by edge balance test; format: functional
[12] = molecular target: 5-hydroxytryptamine receptor 3A (Homo sapiens, UniProt P46098); assay: Displacement of [3H]BRL43694 from 5HT3 receptor
[13] = molecular target: 5-hydroxytryptamine receptor 6 (Homo sapiens, UniProt P50406); assay: Displacement of [3H]LSD from 5HT6 receptor
[14] = molecular target: Sigma non-opioid intracellular receptor 1 (Homo sapiens, UniProt Q99720); assay: Displacement of [3H]pentazocine from sigma1 receptor
[15] = molecular target: Sodium channel protein type 10 subunit alpha (Rattus norvegicus, UniProt Q62968); assay: Inhibition of recombinant rat Nav1.8 sodium channel assessed as blockade of TTXR current by patch clamp method
[16] = Clearance in rat plasma; format: ADME, organism-based
[17] = Elimination half life in iv dosed rat; format: ADME, organism-based; conditions: in vivo
[18] = molecular target: Potassium voltage-gated channel subfamily KQT member 3 (Homo sapiens, UniProt O43525); assay: Inhibition of KCNQ3 channel
[19] = Bioavailability in rat at 10 mg/kg, ip; format: ADME, organism-based; conditions: in vivo
[20] = Tmax in rat at 10 mg/kg, ip; format: ADME, organism-based; parameters: dose 10 mg/kg, route intraperitoneal; conditions: in vivo
[21] = Drug level in rat plasma at 10 to 100 mg/kg, ip after 45 mins; format: ADME, organism-based; parameters: dose 10-100 mg/kg, route intraperitoneal
[22] = tested on: Rattus norvegicus; assay: Analgesic activity in rat acute thermal stimulation nociception model assessed as paw withdrawal latency at 100 mg/kg, ip; format: functional; conditions: route intraperitoneal
[23] = tested on: Rattus norvegicus; assay: Analgesic activity in ip dosed rat acute mechanical stimulation nociception model assessed as paw withdrawal latency; format: functional
[24] = tested on: Rattus norvegicus; assay: Analgesic activity in rat acute mechanical stimulation nociception model assessed as paw withdrawal latency at 100 mg/kg, ip; format: functional; conditions: route intraperitoneal
[25] = tested on: Rattus norvegicus; assay: Analgesic activity in ip dosed rat formalin flinching inflammatory pain model; format: functional
[26] = tested on: Rattus norvegicus; assay: Analgesic activity in rat formalin flinching inflammatory pain model at 300 mg/kg, ip; format: functional; conditions: route intraperitoneal
[27] = tested on: Rattus norvegicus; assay: Analgesic activity in ip dosed rat capsaicn induced mechanical allodynia model; format: functional
[28] = tested on: Rattus norvegicus; assay: Analgesic activity in ip dosed rat carrageenan-induced […] pain model; format: functional
[29] = tested on: Rattus norvegicus; assay: Analgesic activity in rat carrageenan-induced […] pain model at 100 mg/kg, ip; format: functional; conditions: route intraperitoneal
[30] = tested on: Rattus norvegicus; assay: Analgesic activity in ip dosed rat complete Freund's adjuvant-induced thermal hyperalgesia model assessed as paw withdrawal latency after 2 days; format: functional; conditions: 48 h
[31] = tested on: Rattus norvegicus; assay: Analgesic activity in rat complete Freund's adjuvant-induced thermal hyperalgesia model assessed as paw withdrawal latency at 100 mg/kg, ip after 4 days; format: functional; conditions: route intraperitoneal
[32] = tested on: Rattus norvegicus; assay: Motor effect in rat assessed as latency to fall at 300 mg/kg, ip by edge balance test; format: functional; conditions: route intraperitoneal
[33] = molecular target: Adenosine receptor A1 (Homo sapiens, UniProt P30542); assay: Displacement of [3H]DPCPX from adenosine A1 receptor
[34] = Displacement of [3H]prazosin from adrenergic alpha-1 receptor
[35] = molecular target: Alpha-2A adrenergic receptor (Homo sapiens, UniProt P08913); assay: Displacement of [3H]RX821002 from adrenergic alpha-2 receptor
[36] = molecular target: ADRB1 (Homo sapiens, UniProt P08588); assay: Displacement of [3H](-)CGP-12177 from adrenergic beta-1 receptor
[37] = molecular target: Beta-2 adrenergic receptor (Homo sapiens, UniProt P07550); assay: Displacement of [3H](-)CGP-12177 from adrenergic beta2 receptor
[38] = molecular target: Transient receptor potential cation channel subfamily V member 1 (Homo sapiens, UniProt Q8NER1); assay: Inhibition of TRPV1
[39] = molecular target: Sodium channel protein type 10 subunit alpha (Homo sapiens, UniProt Q9Y5Y9); assay: Inhibition of human Nav1.8 channel expressed in human HEK293 cells by patch clamp method; format: cell-based
[40] = molecular target: T1, Sodium channel protein type 2 subunit alpha (Homo sapiens, UniProt Q99250); assay: Inhibition of human Nav1.2 channel expressed in HEK293 cells at -120 mV by patch clamp method; format: cell-based
T1 sequence (Q99250 whole entry): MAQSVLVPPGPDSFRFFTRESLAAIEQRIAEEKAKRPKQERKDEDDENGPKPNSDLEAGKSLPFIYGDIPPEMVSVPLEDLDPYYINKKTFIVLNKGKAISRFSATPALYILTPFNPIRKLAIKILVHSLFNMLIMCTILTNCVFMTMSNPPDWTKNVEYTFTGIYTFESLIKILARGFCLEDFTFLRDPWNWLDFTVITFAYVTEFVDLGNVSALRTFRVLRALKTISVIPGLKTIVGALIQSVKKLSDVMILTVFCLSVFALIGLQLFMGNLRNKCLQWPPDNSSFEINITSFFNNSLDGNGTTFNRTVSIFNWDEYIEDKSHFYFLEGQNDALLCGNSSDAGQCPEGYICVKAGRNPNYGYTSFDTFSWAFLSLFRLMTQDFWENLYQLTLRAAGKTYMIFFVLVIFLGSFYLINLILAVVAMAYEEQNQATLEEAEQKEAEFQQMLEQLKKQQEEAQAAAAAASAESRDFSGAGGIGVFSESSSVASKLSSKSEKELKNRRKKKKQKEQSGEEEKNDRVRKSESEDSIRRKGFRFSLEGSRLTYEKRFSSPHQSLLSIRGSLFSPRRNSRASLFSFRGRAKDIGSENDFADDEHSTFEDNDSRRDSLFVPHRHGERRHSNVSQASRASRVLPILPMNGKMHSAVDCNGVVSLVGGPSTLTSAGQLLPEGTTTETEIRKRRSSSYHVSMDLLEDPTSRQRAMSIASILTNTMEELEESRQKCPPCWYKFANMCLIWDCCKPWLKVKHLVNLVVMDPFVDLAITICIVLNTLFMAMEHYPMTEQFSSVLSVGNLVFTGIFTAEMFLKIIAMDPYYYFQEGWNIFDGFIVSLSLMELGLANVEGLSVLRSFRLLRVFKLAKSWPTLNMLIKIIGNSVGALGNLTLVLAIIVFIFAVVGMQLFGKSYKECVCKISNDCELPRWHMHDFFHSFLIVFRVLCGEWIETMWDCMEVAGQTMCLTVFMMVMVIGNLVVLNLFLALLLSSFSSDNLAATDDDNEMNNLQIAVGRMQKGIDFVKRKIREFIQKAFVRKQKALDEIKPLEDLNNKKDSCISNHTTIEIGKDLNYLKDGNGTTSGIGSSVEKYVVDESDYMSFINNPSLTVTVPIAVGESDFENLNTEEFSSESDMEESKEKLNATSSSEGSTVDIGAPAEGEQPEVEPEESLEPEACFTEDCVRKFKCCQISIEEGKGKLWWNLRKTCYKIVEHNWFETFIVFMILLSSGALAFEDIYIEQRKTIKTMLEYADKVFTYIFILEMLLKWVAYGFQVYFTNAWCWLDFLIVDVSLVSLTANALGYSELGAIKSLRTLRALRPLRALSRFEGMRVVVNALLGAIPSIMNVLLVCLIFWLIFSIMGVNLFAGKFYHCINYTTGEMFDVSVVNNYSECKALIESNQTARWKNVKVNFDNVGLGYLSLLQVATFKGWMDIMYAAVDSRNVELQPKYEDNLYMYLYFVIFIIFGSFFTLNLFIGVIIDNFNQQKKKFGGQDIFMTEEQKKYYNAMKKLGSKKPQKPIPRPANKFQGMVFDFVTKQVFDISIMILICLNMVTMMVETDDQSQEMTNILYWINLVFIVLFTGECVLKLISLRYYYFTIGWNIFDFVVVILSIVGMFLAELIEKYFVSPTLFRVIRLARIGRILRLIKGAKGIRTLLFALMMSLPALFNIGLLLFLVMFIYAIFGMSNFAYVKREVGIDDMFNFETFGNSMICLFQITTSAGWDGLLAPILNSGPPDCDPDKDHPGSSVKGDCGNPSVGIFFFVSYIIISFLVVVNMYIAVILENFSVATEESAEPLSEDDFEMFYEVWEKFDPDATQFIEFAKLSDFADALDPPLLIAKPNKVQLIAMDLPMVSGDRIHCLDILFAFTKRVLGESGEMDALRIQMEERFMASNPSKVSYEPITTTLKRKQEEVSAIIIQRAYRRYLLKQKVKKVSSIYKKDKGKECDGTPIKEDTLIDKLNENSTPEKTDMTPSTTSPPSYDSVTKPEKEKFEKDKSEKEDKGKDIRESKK

[41] = molecular target: T1, Sodium channel protein type 2 subunit alpha; assay: Inhibition of human Nav1.2 channel expressed in HEK293 cells at -60 mV by patch clamp method; format: cell-based
[42] = molecular target: T2, Sodium channel protein type 5 subunit alpha (Homo sapiens, UniProt Q14524); assay: Inhibition of human Nav1.5 channel expressed in HEK293 cells at -150 mV by patch clamp method; format: cell-based
T2 sequence (Q14524 whole entry): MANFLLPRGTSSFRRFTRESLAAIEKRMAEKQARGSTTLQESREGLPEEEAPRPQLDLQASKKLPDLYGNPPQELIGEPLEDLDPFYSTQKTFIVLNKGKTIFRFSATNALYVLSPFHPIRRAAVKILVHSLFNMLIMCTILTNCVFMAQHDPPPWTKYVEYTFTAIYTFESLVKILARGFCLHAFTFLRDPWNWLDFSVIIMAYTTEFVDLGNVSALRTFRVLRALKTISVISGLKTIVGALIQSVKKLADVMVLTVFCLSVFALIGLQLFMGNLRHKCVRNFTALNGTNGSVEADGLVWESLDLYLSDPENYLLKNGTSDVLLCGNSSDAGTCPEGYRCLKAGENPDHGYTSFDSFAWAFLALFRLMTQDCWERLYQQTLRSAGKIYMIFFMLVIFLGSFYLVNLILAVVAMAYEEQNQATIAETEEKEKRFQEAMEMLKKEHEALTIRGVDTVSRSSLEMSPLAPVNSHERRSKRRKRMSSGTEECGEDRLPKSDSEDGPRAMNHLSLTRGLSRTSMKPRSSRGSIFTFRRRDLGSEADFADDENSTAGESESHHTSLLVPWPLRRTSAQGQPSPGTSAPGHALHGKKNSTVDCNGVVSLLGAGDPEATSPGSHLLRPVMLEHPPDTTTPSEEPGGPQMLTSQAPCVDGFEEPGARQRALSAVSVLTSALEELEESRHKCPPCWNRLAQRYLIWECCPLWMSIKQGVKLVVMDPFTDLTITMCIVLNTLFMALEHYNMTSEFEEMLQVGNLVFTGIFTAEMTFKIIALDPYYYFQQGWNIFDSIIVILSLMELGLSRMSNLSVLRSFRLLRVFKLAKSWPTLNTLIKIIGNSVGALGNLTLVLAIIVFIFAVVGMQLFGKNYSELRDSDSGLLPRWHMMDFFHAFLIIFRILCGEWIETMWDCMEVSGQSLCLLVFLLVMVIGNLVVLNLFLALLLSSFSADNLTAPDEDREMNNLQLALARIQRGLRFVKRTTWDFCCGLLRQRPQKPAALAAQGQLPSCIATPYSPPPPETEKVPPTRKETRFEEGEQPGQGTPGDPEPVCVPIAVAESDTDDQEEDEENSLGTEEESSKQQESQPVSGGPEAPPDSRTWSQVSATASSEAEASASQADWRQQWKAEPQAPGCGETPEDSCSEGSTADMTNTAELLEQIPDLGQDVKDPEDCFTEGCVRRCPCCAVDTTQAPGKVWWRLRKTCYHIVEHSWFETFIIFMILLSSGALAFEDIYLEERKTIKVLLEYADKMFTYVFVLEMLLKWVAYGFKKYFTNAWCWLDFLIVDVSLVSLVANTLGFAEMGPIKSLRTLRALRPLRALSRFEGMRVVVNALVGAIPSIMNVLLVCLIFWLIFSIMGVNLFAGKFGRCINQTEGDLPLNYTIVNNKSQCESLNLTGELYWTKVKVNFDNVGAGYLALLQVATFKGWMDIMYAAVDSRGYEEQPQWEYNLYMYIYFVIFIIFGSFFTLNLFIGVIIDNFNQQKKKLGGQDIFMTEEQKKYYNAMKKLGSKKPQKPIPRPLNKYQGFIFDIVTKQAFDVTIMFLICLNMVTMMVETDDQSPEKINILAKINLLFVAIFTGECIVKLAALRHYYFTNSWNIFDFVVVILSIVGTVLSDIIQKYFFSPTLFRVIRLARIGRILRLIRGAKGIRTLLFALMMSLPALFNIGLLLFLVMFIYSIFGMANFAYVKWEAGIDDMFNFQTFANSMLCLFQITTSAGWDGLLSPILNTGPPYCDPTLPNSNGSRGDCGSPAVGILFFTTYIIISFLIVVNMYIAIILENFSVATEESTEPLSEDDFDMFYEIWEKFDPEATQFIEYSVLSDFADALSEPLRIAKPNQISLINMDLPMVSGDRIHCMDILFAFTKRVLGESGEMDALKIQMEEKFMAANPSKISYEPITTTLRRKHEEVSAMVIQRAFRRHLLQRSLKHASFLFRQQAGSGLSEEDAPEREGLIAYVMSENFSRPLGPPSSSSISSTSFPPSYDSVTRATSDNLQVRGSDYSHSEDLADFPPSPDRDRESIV

[43] = molecular target: T2, Sodium channel protein type 5 subunit alpha; assay: Inhibition of human Nav1.5 channel expressed in HEK293 cells at -90 mV by patch clamp method; format: cell-based
[44] = molecular target: Sodium channel protein type 9 subunit alpha (Homo sapiens, UniProt Q15858); assay: Inhibition of human Nav1.7 channel expressed in HEK293 cells at -120 mV by patch clamp method; format: cell-based
[45] = tested on: Rattus norvegicus; assay: Analgesic activity in rat complete Freund's adjuvant-induced mechanical hyperalgesia model assessed as paw withdrawal latency at 100 mg/kg, ip after 2 days; format: functional; conditions: route intraperitoneal
[46] = tested on: Rattus norvegicus; assay: Analgesic activity in ip dosed rat complete Freund's adjuvant-induced mechanical hyperalgesia model assessed as paw withdrawal latency after 4 days; format: functional; conditions: 96 h
[47] = tested on: Rattus norvegicus; assay: Analgesic activity in rat complete Freund's adjuvant-induced mechanical hyperalgesia model assessed as paw withdrawal latency at 100 mg/kg, ip after 4 days; format: functional; conditions: route intraperitoneal
[48] = molecular target: D(4) dopamine receptor (Homo sapiens, UniProt P21917); assay: Displacement of [3H]spiperone from dopamine D4.4 receptor
Chain of D(4) dopamine receptor (P21917 whole entry): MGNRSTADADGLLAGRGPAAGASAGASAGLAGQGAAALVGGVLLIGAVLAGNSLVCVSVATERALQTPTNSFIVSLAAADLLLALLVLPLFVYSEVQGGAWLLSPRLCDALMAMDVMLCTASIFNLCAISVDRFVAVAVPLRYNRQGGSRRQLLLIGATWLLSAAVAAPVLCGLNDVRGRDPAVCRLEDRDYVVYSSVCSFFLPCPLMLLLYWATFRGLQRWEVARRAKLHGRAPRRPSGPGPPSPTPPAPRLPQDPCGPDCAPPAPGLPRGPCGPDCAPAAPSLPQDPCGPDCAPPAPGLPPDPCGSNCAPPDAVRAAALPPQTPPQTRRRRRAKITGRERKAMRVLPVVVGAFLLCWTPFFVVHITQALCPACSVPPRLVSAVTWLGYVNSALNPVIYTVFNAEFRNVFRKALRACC

[49] = Displacement of [3H]GABA from GABA receptor
[50] = Displacement of [125I]TNFalpha from TNFalpha receptor
[51] = molecular target: C-C chemokine receptor type 1 (Homo sapiens, UniProt P32246); assay: Displacement of [125I]MIP1-alpha from CCR1 receptor
[52] = molecular target: Muscarinic acetylcholine receptor M1 (Homo sapiens, UniProt P11229); assay: Displacement of [3H]pirezepine from muscarinic M1 receptor
[53] = molecular target: Muscarinic acetylcholine receptor M3 (Homo sapiens, UniProt P20309); assay: Displacement of [3H]4DAMP from muscarinic M3 receptor
Chain of Muscarinic acetylcholine receptor M3 (P20309 whole entry): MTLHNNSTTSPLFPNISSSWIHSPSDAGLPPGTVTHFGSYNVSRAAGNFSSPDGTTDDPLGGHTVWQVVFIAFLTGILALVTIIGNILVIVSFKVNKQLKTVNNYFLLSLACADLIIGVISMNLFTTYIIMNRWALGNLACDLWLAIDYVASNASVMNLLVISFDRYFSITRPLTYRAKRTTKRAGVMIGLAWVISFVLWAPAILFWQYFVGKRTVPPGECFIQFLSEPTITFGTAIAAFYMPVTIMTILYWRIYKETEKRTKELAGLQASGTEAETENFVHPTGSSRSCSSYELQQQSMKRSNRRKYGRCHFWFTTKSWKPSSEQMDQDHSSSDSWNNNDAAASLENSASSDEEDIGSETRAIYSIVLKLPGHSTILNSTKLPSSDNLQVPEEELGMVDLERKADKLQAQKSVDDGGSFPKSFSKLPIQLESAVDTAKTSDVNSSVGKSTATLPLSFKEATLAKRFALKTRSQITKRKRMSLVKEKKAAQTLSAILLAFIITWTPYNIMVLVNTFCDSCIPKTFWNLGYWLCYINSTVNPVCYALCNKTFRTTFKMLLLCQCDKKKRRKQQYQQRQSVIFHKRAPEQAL

[54] = molecular target: Kappa-type opioid receptor (Homo sapiens, UniProt P41145); assay: Displacement of [3H]U-69593 from opioid kappa receptor
[55] = molecular target: Nociceptin receptor (Homo sapiens, UniProt P41146); assay: Displacement of [3H]nociceptin from ORL1 receptor

In the case of `COc1cc(NC(=O)c2ccc(-c3ccc(Cl)cc3)o2)cc(OC)c1`, the ED50 [1] is reported as 47 mg/kg, the ED50 [2] is reported as 85 mg/kg and the ED50 [3] is reported as > 100 mg/kg. For the same molecule, the ED50 [4] was > 100 mg/kg, the ED50 [5] was > 100 mg/kg and the ED50 [6] was > 100 mg/kg. The Activity [7] was 0%, the ED50 [8] was > 100 mg/kg and the ED50 [9] was > 300 mg/kg. The Activity [10] was 0%, the ED50 [11] was > 300 mg/kg and the IC50 [12] was > 10 µM. The IC50 [13] was > 10 µM, the IC50 [14] was > 10 µM and the IC50 [15] was 0.045 µM. For the same molecule, the clearance [16] was 1.5 L/h/kg, the half-life [17] was 4.9 h and the IC50 [18] was > 10 µM. For the same molecule, the bioavailability [19] was 26%, the Tmax [20] was 1.6 h and the concentration at 0.75 h [21] was 0.4 µg/mL. For the same molecule, the Activity [22] was 0%, the ED50 [23] was 65 mg/kg and the Activity [24] was 70%. The ED50 [25] was > 100 mg/kg, the Activity [26] was 9% and the ED50 [27] was 100 mg/kg. For the same molecule, the ED50 [28] was 100 mg/kg, the Activity [29] was 54% and the ED50 [30] was 100 mg/kg. The Activity [31] was 71%, the Activity [32] was 0% and the IC50 [33] was > 10 µM. For the same molecule, the IC50 [34] was > 10 µM, the IC50 [35] was > 10 µM and the IC50 [36] was > 10 µM. For the same molecule, the IC50 [37] was > 10 µM, the IC50 [38] was > 10 µM and the IC50 [39] was 0.008 µM. It also gave an IC50 [40] of 9.49 µM, an IC50 [41] of 7.38 µM and an IC50 [42] of 32.8 µM. It also gave an IC50 [43] of 7.34 µM, an IC50 [44] of 35.3 µM and an Activity [45] of 34%. The ED50 [46] was > 100 mg/kg, the Activity [47] was 42% and the IC50 [48] was > 10 µM. For the same molecule, the IC50 [49] was > 10 µM, the IC50 [50] was > 10 µM and the IC50 [51] was > 10 µM. For the same molecule, the IC50 [52] was > 10 µM, the IC50 [53] was > 10 µM and the IC50 [54] was > 10 µM. For the same molecule, the IC50 [55] was > 10 µM.
